Results taken from patent US9744211B2, “Uses of BT lipopeptides as therapeutics for obesity and related diseases” (MYGALAXY LIMITED COMPANY, priority 2012, dated 2017).

Test system: isolated chicken heterophils
Assay: PMA-stimulated oxidative burst of heterophils in vitro (BT priming assay, with or without anti-TLR2 antibody blocking)
Assay type: cell-based
Settings: Group 2: PMA stimulation only, no BT
Source text: However, the in vitro priming assay provides a useful tool for probing possible signaling pathway involved in BT-mediated innate immunomodulation. Since TLRs are conserved receptors playing key roles in innate immunity (Farnell et al., 2003) and TLR2 is the only TLR that has lipopeptide agonists, the same in vitro BT priming assay (Kogut et al., 2012) was employed to investigate whether TLR2 can function as a receptor for BT lipopeptides.
Goat polyclonal antibodies raised against human TLR2 were purchased from Santa Cruz Biotechnology Lab (Santa Cruz, Calif.). For TLR2-blocking, isolated chicken heterophils and the antibodies (2.0 μg/ml) were incubated, prior to the treatments of BT and/or PMA, at 39° C. for 30 minutes.

SMILES: CCCCCCCCCCCCCC(=O)O[C@@H]1[C@@H](C)[C@@]2(O)[C@@H](C=C(CO)C[C@]3(O)C(=O)C(C)=C[C@@H]23)[C@@H]2C(C)(C)[C@]12OC(C)=O [PMA]
- Oxidative burst (RFU + SE) in 10^3: 11.235 ± 0.125 RFU in 10^3
